From PMC2064394 (The Journal of Cell Biology, 2006)

Molecular target: T1, recombinant C. elegans kinesin-II (heterotrimeric kinesin-2) (Caenorhabditis elegans, UniProt Q19633+Q965T6)
T1 sequence (Q19633 1-782): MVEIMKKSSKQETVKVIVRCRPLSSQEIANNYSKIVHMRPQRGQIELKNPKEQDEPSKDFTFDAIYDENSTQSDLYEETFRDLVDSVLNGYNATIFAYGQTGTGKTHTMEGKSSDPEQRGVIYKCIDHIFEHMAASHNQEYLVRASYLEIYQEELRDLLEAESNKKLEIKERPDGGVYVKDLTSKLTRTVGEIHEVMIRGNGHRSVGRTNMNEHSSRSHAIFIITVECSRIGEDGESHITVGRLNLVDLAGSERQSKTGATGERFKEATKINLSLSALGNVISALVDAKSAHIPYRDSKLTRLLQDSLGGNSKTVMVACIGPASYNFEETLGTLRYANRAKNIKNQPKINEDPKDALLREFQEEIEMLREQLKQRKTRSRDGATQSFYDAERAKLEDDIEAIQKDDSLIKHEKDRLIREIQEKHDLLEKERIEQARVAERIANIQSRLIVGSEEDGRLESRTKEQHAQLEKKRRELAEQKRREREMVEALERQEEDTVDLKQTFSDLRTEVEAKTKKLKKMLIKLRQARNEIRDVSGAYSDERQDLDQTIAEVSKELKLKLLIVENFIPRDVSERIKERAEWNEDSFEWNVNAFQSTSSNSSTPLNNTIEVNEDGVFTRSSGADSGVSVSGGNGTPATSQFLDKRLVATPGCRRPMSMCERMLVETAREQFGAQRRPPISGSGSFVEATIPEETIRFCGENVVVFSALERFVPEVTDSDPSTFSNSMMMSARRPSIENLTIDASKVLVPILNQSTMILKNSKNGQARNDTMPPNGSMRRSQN
T1 sequence (Q965T6 1-646): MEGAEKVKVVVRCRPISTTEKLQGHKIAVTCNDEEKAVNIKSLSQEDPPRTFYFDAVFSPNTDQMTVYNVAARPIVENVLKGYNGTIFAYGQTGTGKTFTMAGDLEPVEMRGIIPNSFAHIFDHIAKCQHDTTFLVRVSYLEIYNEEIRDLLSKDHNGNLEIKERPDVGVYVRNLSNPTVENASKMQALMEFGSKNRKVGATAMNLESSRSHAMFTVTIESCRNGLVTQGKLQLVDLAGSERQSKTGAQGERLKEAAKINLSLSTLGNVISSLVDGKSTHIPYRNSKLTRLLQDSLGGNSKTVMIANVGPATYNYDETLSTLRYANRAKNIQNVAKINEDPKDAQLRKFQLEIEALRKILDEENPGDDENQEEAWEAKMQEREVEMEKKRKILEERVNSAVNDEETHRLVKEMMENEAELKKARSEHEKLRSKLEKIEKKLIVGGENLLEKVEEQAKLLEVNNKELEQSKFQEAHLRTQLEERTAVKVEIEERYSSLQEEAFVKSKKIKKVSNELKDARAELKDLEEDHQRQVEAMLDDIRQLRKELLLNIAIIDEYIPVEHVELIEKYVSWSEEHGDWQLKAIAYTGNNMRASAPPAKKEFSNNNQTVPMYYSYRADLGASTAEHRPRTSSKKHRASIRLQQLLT
T1 sequence (G5EEE6 1-713 partner): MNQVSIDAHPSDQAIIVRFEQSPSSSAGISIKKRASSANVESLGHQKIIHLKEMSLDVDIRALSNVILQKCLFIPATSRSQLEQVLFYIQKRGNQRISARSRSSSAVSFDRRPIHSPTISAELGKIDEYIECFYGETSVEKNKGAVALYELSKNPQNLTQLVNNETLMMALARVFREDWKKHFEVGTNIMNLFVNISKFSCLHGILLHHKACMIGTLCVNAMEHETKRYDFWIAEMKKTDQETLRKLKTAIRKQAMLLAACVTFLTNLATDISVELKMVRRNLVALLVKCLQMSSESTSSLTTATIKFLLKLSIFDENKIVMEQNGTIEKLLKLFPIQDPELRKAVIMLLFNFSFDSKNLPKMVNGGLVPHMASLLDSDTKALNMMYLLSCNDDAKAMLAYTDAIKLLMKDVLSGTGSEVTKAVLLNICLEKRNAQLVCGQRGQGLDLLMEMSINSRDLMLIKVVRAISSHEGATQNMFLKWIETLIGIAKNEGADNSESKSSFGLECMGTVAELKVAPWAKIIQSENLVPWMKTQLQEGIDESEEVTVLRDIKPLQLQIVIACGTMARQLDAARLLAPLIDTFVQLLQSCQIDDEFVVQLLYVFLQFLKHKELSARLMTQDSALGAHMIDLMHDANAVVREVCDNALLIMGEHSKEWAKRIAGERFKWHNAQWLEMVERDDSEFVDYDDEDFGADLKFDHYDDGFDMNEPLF
Test: microtubule gliding velocity assay
Type: biochemical
Details: read-out: Recombinant C. elegans kinesin-II; Mg-ATP; microtubules; 21°C

Question: Which Km does the source give for `Nc1ncnc2c1ncn2[C@@H]1O[C@H](COP(=O)(O)OP(=O)(O)OP(=O)(O)O)[C@@H](O)[C@H]1O` [Mg-ATP] here?
Answer: 280 ± 50 µM
